In data set [1] the test system is Escherichia coli. The experiment in a line: Antibacterial activity against Escherichia coli ATCC 25922 assessed as inhibition in bacterial growth incubated for 20 to 24 hrs by CLSI based broth microdilution method. The format is functional. To be noted: time 20-24 hrs.
Data set [2] has as its system Acinetobacter baumannii. The experiment in a line: Antibacterial activity against Acinetobacter baumannii ATCC 19606 assessed as inhibition in bacterial growth incubated for 20 to 24 hrs by CLSI based broth microdilution method. It is filed as functional. To be noted: time 20-24 hrs.
Data set [3] concerns Klebsiella pneumoniae. Briefly: Antibacterial activity against Klebsiella pneumoniae ATCC BAA-1705 assessed as inhibition in bacterial growth incubated for 20 to 24 hrs by CLSI based broth microdilution method. It is filed as functional. To be noted: time 20-24 hrs.
Data set [4] deals with Pseudomonas aeruginosa. The experiment in a line: Antibacterial activity against Pseudomonas aeruginosa ATCC 27853 assessed as inhibition in bacterial growth incubated for 20 to 24 hrs by CLSI based broth microdilution method. The format is functional. To be noted: time 20-24 hrs.
Data set [5] addresses DNA gyrase (Escherichia coli, UniProt P0AES4+P0AES6). Briefly: Inhibition of Escherichia coli DNA gyrase incubated for 80 mins by Transcreener ADP2 FI assay. The format is protein-complex assay.
For data set [6], the target named is T1, hERG (KCNH2) (Homo sapiens, UniProt Q12809). Briefly: Inhibition of hERG potassium channel expressed in CHO cells at 10 uM by electrophysiological patch clamp assay relative to control. It is filed as toxicity, cell-based. Conditions: CHO cells expressing hERG.
T1 sequence (Q12809 whole entry): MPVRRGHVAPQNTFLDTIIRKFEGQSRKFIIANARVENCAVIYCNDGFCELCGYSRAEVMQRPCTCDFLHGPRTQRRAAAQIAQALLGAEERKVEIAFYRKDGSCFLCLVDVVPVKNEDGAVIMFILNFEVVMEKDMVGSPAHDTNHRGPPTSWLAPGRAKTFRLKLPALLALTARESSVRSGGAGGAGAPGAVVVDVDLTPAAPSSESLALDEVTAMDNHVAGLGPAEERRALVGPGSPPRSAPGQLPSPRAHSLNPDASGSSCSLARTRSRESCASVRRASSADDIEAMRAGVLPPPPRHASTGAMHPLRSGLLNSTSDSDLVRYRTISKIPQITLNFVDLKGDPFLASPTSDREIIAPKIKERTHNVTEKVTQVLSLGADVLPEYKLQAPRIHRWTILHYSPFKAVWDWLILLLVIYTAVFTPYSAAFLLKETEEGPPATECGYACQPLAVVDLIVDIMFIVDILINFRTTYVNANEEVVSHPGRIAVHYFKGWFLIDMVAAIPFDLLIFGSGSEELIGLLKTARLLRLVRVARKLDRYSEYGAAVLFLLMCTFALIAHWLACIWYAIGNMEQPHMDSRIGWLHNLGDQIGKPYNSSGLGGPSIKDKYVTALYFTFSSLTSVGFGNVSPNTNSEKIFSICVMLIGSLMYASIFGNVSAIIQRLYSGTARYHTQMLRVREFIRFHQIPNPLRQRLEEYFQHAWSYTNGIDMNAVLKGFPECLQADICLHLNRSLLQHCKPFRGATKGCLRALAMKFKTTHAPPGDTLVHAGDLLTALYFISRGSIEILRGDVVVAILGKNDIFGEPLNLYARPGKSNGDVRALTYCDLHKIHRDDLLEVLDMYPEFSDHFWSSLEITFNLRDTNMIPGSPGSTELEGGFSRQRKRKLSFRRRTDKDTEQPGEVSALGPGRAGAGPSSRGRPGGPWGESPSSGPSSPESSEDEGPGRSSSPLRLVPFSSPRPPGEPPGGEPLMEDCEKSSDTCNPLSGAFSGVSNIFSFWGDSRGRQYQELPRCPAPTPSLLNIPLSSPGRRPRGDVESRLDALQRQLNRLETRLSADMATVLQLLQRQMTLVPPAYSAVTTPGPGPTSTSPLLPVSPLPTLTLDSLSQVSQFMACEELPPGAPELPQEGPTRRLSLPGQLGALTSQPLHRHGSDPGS
Data set [7] has as its system Escherichia coli. Briefly: Antibacterial activity against Escherichia coli K-12 BW25113 assessed as inhibition in bacterial growth incubated for 20 to 24 hrs by CLSI based broth microdilution method. It is filed as functional. To be noted: Escherichia coli, K-12 BW25113, time 20-24 hrs; read-out: MIC.
For data set [8], the system named is Escherichia coli. Briefly: Antibacterial activity against Escherichia coli K-12 BW25113 deltaTolC assessed as inhibition in bacterial growth incubated for 20 to 24 hrs by CLSI based broth microdilution method. To be noted: time 20-24 hrs. The format is functional.
Data set [9] concerns Escherichia coli. Briefly: Antibacterial activity against Escherichia coli ATCC 35218 assessed as inhibition in bacterial growth incubated for 20 to 24 hrs by CLSI based broth microdilution method. Conditions: Escherichia coli, ATCC 35218, time 20-24 hrs; read-out: MIC. The format is functional.
Data set [10] concerns Escherichia coli. Briefly: Antibacterial activity against Escherichia coli ATCC BAA-2340 assessed as inhibition in bacterial growth incubated for 20 to 24 hrs by CLSI based broth microdilution method. It is filed as functional. To be noted: Escherichia coli, ATCC BAA-2340, time 20-24 hrs; read-out: MIC.
For data set [11], the system named is Acinetobacter baumannii. Briefly: Antibacterial activity against Acinetobacter baumannii ATCC 51432 assessed as inhibition in bacterial growth incubated for 20 to 24 hrs by CLSI based broth microdilution method. Conditions: Acinetobacter baumannii, ATCC 51432, time 20-24 hrs; read-out: MIC. It is filed as functional.
Data set [12] deals with Acinetobacter baumannii. Briefly: Antibacterial activity against Acinetobacter baumannii ATCC BAA-747 assessed as inhibition in bacterial growth incubated for 20 to 24 hrs by CLSI based broth microdilution method. It is filed as functional. Conditions: Acinetobacter baumannii, ATCC BAA-747, time 20-24 hrs; read-out: MIC.
Data set [13] deals with Klebsiella pneumoniae. Briefly: Antibacterial activity against Klebsiella pneumoniae ATCC 10031 assessed as inhibition in bacterial growth incubated for 20 to 24 hrs by CLSI based broth microdilution method. Conditions: time 20-24 hrs. The format is functional.
Data set [14] deals with Klebsiella pneumoniae. The experiment in a line: Antibacterial activity against Klebsiella pneumoniae ATCC 700603 assessed as inhibition in bacterial growth incubated for 20 to 24 hrs by CLSI based broth microdilution method. The format is functional. Conditions: Klebsiella pneumoniae, ATCC 700603, time 20-24 hrs; read-out: MIC.
The subject of data set [15] is Klebsiella pneumoniae. The experiment in a line: Antibacterial activity against Klebsiella pneumoniae ATCC BAA-2146 assessed as inhibition in bacterial growth incubated for 20 to 24 hrs by CLSI based broth microdilution method. The format is functional. Conditions: Klebsiella pneumoniae, ATCC BAA-2146, time 20-24 hrs; read-out: MIC.
Data set [16] has as its system Pseudomonas aeruginosa. Briefly: Antibacterial activity against Pseudomonas aeruginosa NCTC 13437 assessed as inhibition in bacterial growth incubated for 20 to 24 hrs by CLSI based broth microdilution method. The format is functional. To be noted: Pseudomonas aeruginosa, NCTC 13437, time 20-24 hrs; read-out: MIC.
Data set [17] deals with Pseudomonas aeruginosa. Briefly: Antibacterial activity against Pseudomonas aeruginosa NCTC 11451 assessed as inhibition in bacterial growth incubated for 20 to 24 hrs by CLSI based broth microdilution method. It is filed as functional. Conditions: Pseudomonas aeruginosa, NCTC 11451, time 20-24 hrs; read-out: MIC.
In data set [18] the test system is Staphylococcus aureus. Briefly: Antibacterial activity against Staphylococcus aureus ATCC BAA-1556 assessed as inhibition in bacterial growth incubated for 20 to 24 hrs by CLSI based broth microdilution method. It is filed as functional. To be noted: Staphylococcus aureus, ATCC BAA-1556, time 20-24 hrs; read-out: MIC.
The test system of data set [19] is Staphylococcus aureus. The experiment in a line: Antibacterial activity against Staphylococcus aureus ATCC 29213 assessed as inhibition in bacterial growth incubated for 20 to 24 hrs by CLSI based broth microdilution method. The format is functional. To be noted: Staphylococcus aureus, ATCC 29213; time 20-24 hrs; read-out: MIC.
Data set [20] in a line: Inhibition of Escherichia coli topoisomerase 4 incubated for 120 mins by Transcreener ADP2 FI assay.
Data set [21] has as its target T1, hERG (KCNH2). Briefly: Inhibition of hERG potassium channel expressed in CHO cells at 1 uM by electrophysiological patch clamp assay relative to control. It is filed as toxicity, cell-based. Conditions: CHO cells expressing hERG.
The target in data set [22] is Voltage-gated inwardly rectifying potassium channel KCNH2 (Homo sapiens, UniProt Q12809). Briefly: (§1) Inhibition of hERG potassium channel expressed in CHO cells by electrophysiological patch clamp assay. The format is toxicity, cell-based.
Chain of Voltage-gated inwardly rectifying potassium channel KCNH2 (Q12809 whole entry): as above
Data set [23] concerns the target T1, hERG (KCNH2). The data set is described as §1. The format is toxicity, cell-based. Conditions: human, CHO cells expressing hERG.

The text below walks through data of ChEMBL document CHEMBL5390317, “Novel Indane-Containing NBTIs with Potent Anti-Gram-Negative Activity and Minimal hERG Inhibition” (ACS Med Chem Lett, 2023).

≈ marks a conversion by molar mass, not a printed value.

Regarding `N#Cc1cc(OCC2(N)CC2)cc2c1CC(CNCCC1CN(c3ccc4c(n3)NC(=O)CO4)C(=O)O1)C2` (configuration not stated), the MIC in data set [1] is no more than 0.06 µg/mL; in data set [2] it was 1 µg/mL (≈ 1.93 µM); in [3] it was 1 µg/mL (≈ 1.93 µM); in [4], 0.25 µg/mL (≈ 0.482 µM); in data set [7] it was no more than 0.06 µg/mL; in data set [8], no more than 0.06 µg/mL. Further, the MIC was 0.125 µg/mL (≈ 0.241 µM) in [9]; no more than 0.06 µg/mL in data set [10]; 2 µg/mL (≈ 3.86 µM) in [11]; no more than 0.06 µg/mL in data set [12]; no more than 0.06 µg/mL in [13]; 1 µg/mL (≈ 1.93 µM) in data set [14]. For the same compound, the MIC in data set [15] was 4 µg/mL (≈ 7.71 µM); in [16] it was 0.5 µg/mL (≈ 0.964 µM); in data set [17] it was 1 µg/mL (≈ 1.93 µM); in data set [18], no more than 0.06 µg/mL; in data set [19] it was no more than 0.06 µg/mL. Besides, the IC50 in data set [5] is 0.035 µM; in [20] it was 0.019 µM; in [22], greater than 20 µM. Also, in data set [6], at 10 µM the inhibition was 28%. For the same compound, the inhibition at 1 µM in [21] was less than 1%. Also, in data set [23], the IC20 is 6.4 µM.

With `N#Cc1cc(OCC2CNC2)cc2c1CC(CNCCC1CN(c3ccc4c(n3)NC(=O)CO4)C(=O)O1)C2` (configuration not stated), the MIC in data set [1] is 2 µg/mL (≈ 3.86 µM); in data set [2], 32 µg/mL (≈ 61.7 µM); in [3] it was 16 µg/mL (≈ 30.9 µM); in [4] it was 0.5 µg/mL (≈ 0.964 µM); in data set [7] it was 1 µg/mL (≈ 1.93 µM); in data set [8], no more than 0.06 µg/mL. Besides, the MIC in [9] came out at 2 µg/mL (≈ 3.86 µM); in data set [10], 1 µg/mL (≈ 1.93 µM); in [11], 16 µg/mL (≈ 30.9 µM); in data set [12] it was 8 µg/mL (≈ 15.4 µM); in data set [13], 0.125 µg/mL (≈ 0.241 µM); in [14], 32 µg/mL (≈ 61.7 µM). The minimum inhibitory concentration (MIC) in [15] was determined as 64 µg/mL (≈ 123 µM); in [16], 4 µg/mL (≈ 7.71 µM); in data set [17], 4 µg/mL (≈ 7.71 µM); in [18], 1 µg/mL (≈ 1.93 µM); in [19], 0.5 µg/mL (≈ 0.964 µM). For the same compound, the IC50 in data set [5] was 0.038 µM; in data set [20], 0.019 µM; in data set [22], greater than 20 µM. In data set [6], this compound gave an inhibition at 10 µM of less than 1%. Besides, in data set [21], the inhibition at 1 µM is less than 1%. In [23], this compound displayed an IC20 greater than 10 µM.

For the compound `N#Cc1cc(OCCN)cc2c1CC(CNCCC1CN(c3ccc4c(n3)NC(=O)CO4)C(=O)O1)C2` (configuration not stated), the MIC in data set [1] is 0.25 µg/mL (≈ 0.508 µM); in data set [2], 16 µg/mL (≈ 32.5 µM); in data set [3] it was 2 µg/mL (≈ 4.06 µM); in data set [4], 0.125 µg/mL (≈ 0.254 µM); in data set [7] it was 0.125 µg/mL (≈ 0.254 µM); in [8] it was no more than 0.06 µg/mL. For the same compound, the MIC in data set [9] is 0.25 µg/mL (≈ 0.508 µM); in data set [10], 0.25 µg/mL (≈ 0.508 µM); in data set [11] it was 16 µg/mL (≈ 32.5 µM); in [12] it was 1 µg/mL (≈ 2.03 µM); in [13] it was no more than 0.06 µg/mL; in [14] it was 2 µg/mL (≈ 4.06 µM). The MIC came to 4 µg/mL (≈ 8.12 µM) in data set [15]; 0.5 µg/mL (≈ 1.02 µM) in data set [16]; 1 µg/mL (≈ 2.03 µM) in data set [17]; 1 µg/mL (≈ 2.03 µM) in data set [18]; 0.5 µg/mL (≈ 1.02 µM) in data set [19]. The IC50 in data set [5] is 0.017 µM; in data set [20], 0.006 µM; in data set [22], greater than 20 µM. Moreover, in data set [6], the inhibition at 10 µM was less than 1%. In addition, the inhibition at 1 µM in data set [21] is less than 1%. In [23], the IC20 was greater than 10 µM.

With `CS(=O)(=O)NCCOc1cc(C#N)c2c(c1)CC(CNCCC1CN(c3ccc4c(n3)NC(=O)CO4)C(=O)O1)C2` (configuration not stated), the MIC was 1 µg/mL (≈ 1.75 µM) in data set [1]; 4 µg/mL (≈ 7.01 µM) in data set [2]; 16 µg/mL (≈ 28 µM) in [3]; 1 µg/mL (≈ 1.75 µM) in [4]; 0.5 µg/mL (≈ 0.876 µM) in data set [7]; no more than 0.06 µg/mL in data set [8]. The MIC in [9] was 1 µg/mL (≈ 1.75 µM); in [10] it was 2 µg/mL (≈ 3.5 µM); in data set [11] it was 4 µg/mL (≈ 7.01 µM); in data set [12], 2 µg/mL (≈ 3.5 µM); in data set [13], no more than 0.06 µg/mL; in [14], 16 µg/mL (≈ 28 µM). Also, the MIC in [15] came out at 16 µg/mL (≈ 28 µM); in data set [16], 4 µg/mL (≈ 7.01 µM); in data set [17] it was 4 µg/mL (≈ 7.01 µM); in [18], 0.5 µg/mL (≈ 0.876 µM); in data set [19], 0.25 µg/mL (≈ 0.438 µM). Also, the IC50 in data set [5] was 0.026 µM; in [20], 0.032 µM; in data set [22] it was greater than 20 µM. The same compound displayed an inhibition at 10 µM in data set [6] of 30%. Besides, the inhibition at 1 µM in [21] was less than 1%. The compound further came in with an IC20 in [23] of 5.9 µM.
